These results are taken from ChEMBL document CHEMBL1142710, “3D-QSAR comparative molecular field analysis on opioid receptor antagonists: pooling data from different studies” (J Med Chem, 2005).

Each structure is given as a SMILES string.

Experiment [1] addresses Kappa-type opioid receptor (Cavia porcellus, UniProt P41144). The experiment can be described thus: Binding affinity against Opioid receptor kappa 1 from guinea pig brain membranes using [3H]U-69593.
Experiment [2] has as its target Delta-type opioid receptor (Rattus norvegicus, UniProt P33533). The experiment is described as follows: Binding affinity against Opioid receptor delta 1 from rat brain membranes using [3H]DADLE.
The target in another experiment is Mu-type opioid receptor (Rattus norvegicus, UniProt P33535). The experiment can be described thus: Binding affinity against Opioid receptor mu 1 from rat brain membranes using [3H]DAMGO.
Chain of Mu-type opioid receptor (P33535 whole entry): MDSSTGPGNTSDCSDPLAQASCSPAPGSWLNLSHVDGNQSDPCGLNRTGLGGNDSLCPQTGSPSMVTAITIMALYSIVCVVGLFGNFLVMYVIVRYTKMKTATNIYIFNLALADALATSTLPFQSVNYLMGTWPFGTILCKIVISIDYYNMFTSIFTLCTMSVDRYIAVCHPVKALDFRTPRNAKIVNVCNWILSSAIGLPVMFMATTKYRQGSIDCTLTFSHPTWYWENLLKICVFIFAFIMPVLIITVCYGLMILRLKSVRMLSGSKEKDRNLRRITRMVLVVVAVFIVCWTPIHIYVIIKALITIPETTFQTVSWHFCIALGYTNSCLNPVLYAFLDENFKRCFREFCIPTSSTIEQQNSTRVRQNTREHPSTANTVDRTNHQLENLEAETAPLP

Chain of Kappa-type opioid receptor (P41144 whole entry): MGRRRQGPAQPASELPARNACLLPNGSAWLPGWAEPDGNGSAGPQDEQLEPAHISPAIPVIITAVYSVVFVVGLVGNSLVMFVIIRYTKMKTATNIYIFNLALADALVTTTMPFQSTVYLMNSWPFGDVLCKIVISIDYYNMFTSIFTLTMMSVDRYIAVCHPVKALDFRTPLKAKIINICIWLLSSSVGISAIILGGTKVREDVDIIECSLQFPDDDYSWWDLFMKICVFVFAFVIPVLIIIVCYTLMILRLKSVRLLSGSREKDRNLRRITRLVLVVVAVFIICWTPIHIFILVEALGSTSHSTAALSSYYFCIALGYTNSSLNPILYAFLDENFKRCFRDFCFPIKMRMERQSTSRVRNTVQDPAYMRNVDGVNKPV
Chain of Delta-type opioid receptor (P33533 whole entry): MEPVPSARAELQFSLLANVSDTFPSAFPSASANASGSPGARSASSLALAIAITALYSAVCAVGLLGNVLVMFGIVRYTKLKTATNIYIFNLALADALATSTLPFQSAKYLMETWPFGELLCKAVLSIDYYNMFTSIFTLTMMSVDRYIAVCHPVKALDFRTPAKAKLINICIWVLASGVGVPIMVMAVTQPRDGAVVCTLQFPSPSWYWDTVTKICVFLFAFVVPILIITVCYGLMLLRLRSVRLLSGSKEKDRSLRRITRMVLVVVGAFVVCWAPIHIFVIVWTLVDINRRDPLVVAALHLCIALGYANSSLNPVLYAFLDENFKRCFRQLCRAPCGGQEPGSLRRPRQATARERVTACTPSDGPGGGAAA

The Ki is a dissociation constant, usually derived from enzyme kinetics or from competition with a known ligand. As for `COc1ccc2c(c1O)[C@]13CCN(CC4CC4)C(C2)[C@@H]1CC1c2ccccc2NC1C3` (stereo partly specified), the Ki is 7940 nM in experiment [1], 7.08 nM in experiment [2] and 13200 nM at Mu-type opioid receptor.

Turning to `COc1ccc2c(c1O)[C@]13CCN(C)C(C2)[C@@H]1CC1c2ccccc2NC1C3` (stereo partly specified), the figures for the Ki (in experiment [2]; at Mu-type opioid receptor) were 93.3 nM and 2820 nM, respectively.

For the molecule `CCN1CC[C@]23CC4Nc5ccccc5C4C[C@@]2(O)C1Cc1ccc(OC)c(O)c13` (stereo partly specified), the inhibition constant (Ki) in experiment [2] was 692 nM; on Mu-type opioid receptor it was 794 nM.

In turn, `C=C(C)CN1CCC23c4c5ccc(OC)c4O[C@H]2C(=O)/C(=C\c2ccccc2)C[C@@]3(O)C1C5` (stereo partly specified) showed an inhibitory constant (Ki) in experiment [2] of 3390 nM.

`C=C(C)CN1CCC23c4c5ccc(O)c4O[C@H]2c2ncc(-c4ccc(Cl)cc4)cc2C[C@@]3(O)C1C5` (stereo partly specified): the Ki in experiment [1] is 302 nM; in experiment [2], 15.8 nM.

Consider `C=C(C)CN1CCC23c4c5ccc(OC)c4O[C@H]2c2ncc(-c4ccc(Cl)cc4)cc2C[C@@]3(O)C1C5` (stereo partly specified), for which the inhibition constant (Ki) is 3240 nM in experiment [1] and 257 nM in experiment [2].

Regarding `CCN1CC[C@]23CC4Nc5ccccc5C4C[C@H]2C1Cc1ccc(OC)c(O)c13` (stereo partly specified), the Ki in experiment [1] is 3630 nM; in experiment [2], 513 nM; on Mu-type opioid receptor, 1350 nM.

As to `COc1ccc2c(c1O)[C@]13CCN(C)C(C2)[C@]1(O)CC1c2ccccc2NC1C3` (stereo partly specified), the Ki in experiment [2] is 219 nM; at Mu-type opioid receptor, 2820 nM.

Take `CCCCC1c2c([nH]c3ccccc23)[C@H]2Oc3c(OC)ccc4c3[C@@]23CCN(C)[C@H](C4)[C@H]13` (stereo partly specified): the inhibitory constant (Ki) in experiment [2] was 372 nM.

For `CC(C)=CCN1CC[C@]23c4c5ccc(O)c4O[C@@H]2c2[nH]c4ccccc4c2C[C@@]3(O)[C@H]1C5`, the Ki is 3240 nM in experiment [1], 25.1 nM in experiment [2] and 2820 nM at Mu-type opioid receptor.

For `CC(C)CCN1CC[C@]23c4c5ccc(O)c4O[C@@H]2c2[nH]c4ccccc4c2C[C@@]3(O)[C@H]1C5`, the Ki in experiment [1] was 676 nM; in experiment [2], 3.8 nM; at Mu-type opioid receptor it was 1290 nM.

With `CCCCCCCN1CC[C@]23c4c5ccc(O)c4O[C@@H]2c2[nH]c4ccccc4c2C[C@@]3(O)[C@H]1C5`, the results for the Ki (in experiment [2]; on Mu-type opioid receptor) were 79.4 nM and 4570 nM, respectively.

Consider `CCCCN1CC[C@]23c4c5ccc(O)c4O[C@@H]2c2[nH]c4ccccc4c2C[C@@]3(O)[C@H]1C5`, for which the values for the inhibitory constant (Ki) (in experiment [1]; in experiment [2]; at Mu-type opioid receptor) were 891 nM, 8.32 nM and 1290 nM, respectively.

As for `CCCCC1c2c([nH]c3ccccc23)[C@H]2Oc3c(O)ccc4c3[C@@]23CCN(C)[C@H](C4)[C@H]13` (stereo partly specified), the Ki in experiment [1] was 724 nM; in experiment [2], 21.9 nM; at Mu-type opioid receptor, 1100 nM.

For the molecule `CC(C)CN1CC[C@]23c4c5ccc(O)c4O[C@@H]2c2[nH]c4ccccc4c2C[C@@]3(O)[C@H]1C5`, the inhibitory constant (Ki) in experiment [1] is 646 nM; in experiment [2], 3.8 nM; at Mu-type opioid receptor it was 2570 nM.

`CCCCCCN1CC[C@]23c4c5ccc(O)c4O[C@@H]2c2[nH]c4ccccc4c2C[C@@]3(O)[C@H]1C5`: the Ki in experiment [1] was 3090 nM; in experiment [2] it was 25.7 nM; on Mu-type opioid receptor it was 4570 nM.

As for `CCCN1CC[C@]23c4c5ccc(O)c4O[C@@H]2c2[nH]c4ccccc4c2C[C@@]3(O)[C@H]1C5`, the Ki was 380 nM in experiment [1], 2 nM in experiment [2] and 708 nM at Mu-type opioid receptor.

Regarding `CN1CC[C@]23c4c5ccc(O)c4O[C@@H]2c2[nH]c4ccccc4c2C[C@H]3[C@H]1C5`, the results for the Ki (in experiment [2]; on Mu-type opioid receptor) were 2.4 nM and 708 nM, respectively.

As to `CC1c2c([nH]c3ccccc23)[C@H]2Oc3c(O)ccc4c3[C@@]23CCN(C)[C@H](C4)[C@H]13` (stereo partly specified), the values for the inhibition constant Ki (in experiment [1]; in experiment [2]; on Mu-type opioid receptor) were 126 nM, 0.708 nM and 240 nM, respectively.

As for `C=C(C)CN1CC[C@]23c4c5ccc(OC)c4O[C@@H]2c2[nH]c4ccccc4c2C[C@@]3(O)[C@H]1C5`, the affinity in experiment [2] corresponds to a Ki of 501 nM.

Regarding `COc1ccc2c3c1O[C@@H]1c4[nH]c5ccccc5c4C[C@H]4[C@@H](C2)N(C)CC[C@]314`, in experiment [2], the inhibition constant Ki is 95.5 nM.

In the case of `C/C=C/CN1CC[C@]23c4c5ccc(O)c4O[C@@H]2c2[nH]c4ccccc4c2C[C@@]3(O)[C@H]1C5`, the inhibition constant Ki in experiment [1] was 955 nM; in experiment [2] it was 7.41 nM; at Mu-type opioid receptor, 1200 nM.

`COc1ccc2c3c1O[C@@H]1c4[nH]c5ccccc5c4C(C)[C@H]4[C@@H](C2)N(C)CC[C@]314` (stereo partly specified) showed a Ki in experiment [2] of 26.9 nM.

Consider `C=C(C)CN1CC[C@]23c4c5ccc(O)c4O[C@@H]2c2[nH]c4ccccc4c2C(C)[C@H]3[C@H]1C5` (stereo partly specified), for which the figures for the inhibitory constant (Ki) (in experiment [1]; in experiment [2]; on Mu-type opioid receptor) were 851 nM, 8.91 nM and 1070 nM, respectively.

Take `C/C=C/CN1CC[C@]23c4c5ccc(O)c4O[C@@H]2c2[nH]c4ccccc4c2C(C)[C@H]3[C@H]1C5` (stereo partly specified): the Ki in experiment [1] is 120 nM; in experiment [2] it was 2.29 nM; at Mu-type opioid receptor, 1020 nM.

Turning to `CCCCCN1CC[C@]23c4c5ccc(O)c4O[C@@H]2c2[nH]c4ccccc4c2C[C@@]3(O)[C@H]1C5`, the Ki is 2000 nM in experiment [1], 15.8 nM in experiment [2] and 2820 nM on Mu-type opioid receptor.

With `CC(C)N1CC[C@]23c4c5ccc(O)c4O[C@@H]2c2[nH]c4ccccc4c2C[C@@]3(O)[C@H]1C5`, the values for the inhibition constant Ki in experiment [1] and in experiment [2] were 6170 nM and 33.1 nM, respectively.

With `CCO[C@@]12Cc3c([nH]c4ccccc34)[C@]3(C)Oc4c(O)ccc5c4[C@@]31CCN(C)[C@@H]2C5`, the Ki in experiment [1] is 288 nM.

Regarding `O=C(Oc1ccc2c3c([nH]c2c1)[C@H]1Oc2c(O)ccc4c2[C@@]12CCN(CC1CC1)[C@H](C4)[C@]2(O)C3)c1ccccc1`, the inhibition constant (Ki) in experiment [1] was 468 nM; in experiment [2] it was 6.76 nM; on Mu-type opioid receptor it was 676 nM.

For `Oc1ccc2c3c1O[C@@H]1c4[nH]c5cccc(Oc6ccccc6)c5c4C[C@@]4(O)[C@@H](C2)N(CC2CC2)CC[C@]314`, the values for the inhibition constant (Ki) (in experiment [1]; in experiment [2]; at Mu-type opioid receptor) were 1320 nM, 67.6 nM and 1450 nM, respectively.

Consider `Oc1ccc2c3c1O[C@@H]1c4[nH]c5cccc(-c6ccccc6)c5c4C[C@@]4(O)[C@@H](C2)N(CC2CC2)CC[C@]314`, for which the figures for the Ki (in experiment [1]; in experiment [2]; on Mu-type opioid receptor) were 2950 nM, 52.5 nM and 1510 nM, respectively.

In experiment [2], `Oc1cccc(-c2ccc3c4c2O[C@@H]2c5[nH]c6ccccc6c5C[C@@]5(O)[C@@H](C3)N(CC3CC3)CC[C@]425)c1` showed an inhibition constant Ki of 1620 nM.

For `O=C(Oc1cccc2c3c([nH]c12)[C@H]1Oc2c(O)ccc4c2[C@@]12CCN(CC1CC1)[C@H](C4)[C@]2(O)C3)c1ccccc1`, the Ki in experiment [1] is 257 nM; in experiment [2], 3.09 nM; at Mu-type opioid receptor it was 158 nM.

Consider `O[C@@]12Cc3c([nH]c4ccccc34)[C@H]3Oc4c(-c5ccccc5)ccc5c4[C@@]31CCN(CC1CC1)[C@@H]2C5`, for which the Ki in experiment [2] was 10500 nM.

In the case of `Oc1ccc2c3c1O[C@@H]1c4[nH]c5ccc(-c6ccccc6)cc5c4C[C@@]4(O)[C@@H](C2)N(CC2CC2)CC[C@]314`, the inhibition constant (Ki) was 355 nM in experiment [1], 15.8 nM in experiment [2] and 166 nM on Mu-type opioid receptor.

With `Cc1ccc2c3c1O[C@@H]1c4[nH]c5ccccc5c4C[C@@]4(O)[C@@H](C2)N(CC2CC2)CC[C@]314`, the affinity in experiment [2], expressed as Ki, was 70.8 nM.

As to `Oc1ccc2c3c1O[C@@H]1c4[nH]c5ccc(/C=C/c6ccccn6)cc5c4C[C@@]4(O)[C@@H](C2)N(CC2CC2)CC[C@]314`, the Ki is 20 nM in experiment [1], 3.72 nM in experiment [2] and 75.9 nM at Mu-type opioid receptor.

Turning to `C=Cc1ccc2c3c1O[C@@H]1c4[nH]c5ccccc5c4C[C@@]4(O)[C@@H](C2)N(CC2CC2)CC[C@]314`, the values for the Ki in experiment [1] and in experiment [2] were 17800 nM and 61.7 nM, respectively.

In turn, `O[C@@]12Cc3c([nH]c4ccccc34)[C@H]3Oc4c(-c5ccco5)ccc5c4[C@@]31CCN(CC1CC1)[C@@H]2C5` gave an inhibition constant (Ki) in experiment [2] of 955 nM.

For the molecule `Oc1ccc2c3c1O[C@@H]1c4[nH]c5c(-c6ccccc6)cccc5c4C[C@@]4(O)[C@@H](C2)N(CC2CC2)CC[C@]314`, the inhibition constant Ki was 309 nM in experiment [1], 2.09 nM in experiment [2] and 123 nM on Mu-type opioid receptor.

On to `O=C(Oc1ccc2[nH]c3c(c2c1)C[C@@]1(O)[C@H]2Cc4ccc(O)c5c4[C@@]1(CCN2CC1CC1)[C@@H]3O5)c1ccccc1`, for which the values for the Ki (in experiment [1]; in experiment [2]; on Mu-type opioid receptor) were 81.3 nM, 4.37 nM and 81.3 nM, respectively.

For `Oc1ccc2c3c1O[C@@H]1c4[nH]c5cc(-c6ccccc6)ccc5c4C[C@@]4(O)[C@@H](C2)N(CC2CC2)CC[C@]314`, the Ki is 631 nM in experiment [1], 18.2 nM in experiment [2] and 1290 nM at Mu-type opioid receptor.

Turning to `CC1c2c([nH]c3ccccc23)[C@H]2Oc3c(O)ccc4c3[C@@]23CCN(CC2CC2)[C@H](C4)[C@H]13` (stereo partly specified), the Ki in experiment [1] is 36.3 nM; in experiment [2], 2.29 nM; at Mu-type opioid receptor, 66.1 nM.

Regarding `Oc1ccc2c3c1O[C@@H]1c4[nH]c5cc(Oc6ccccc6)ccc5c4C[C@@]4(O)[C@@H](C2)N(CC2CC2)CC[C@]314`, the Ki in experiment [1] is 234 nM; in experiment [2], 6.46 nM; at Mu-type opioid receptor, 234 nM.

Consider `O=C(Oc1cccc2[nH]c3c(c12)C[C@@]1(O)[C@H]2Cc4ccc(O)c5c4[C@@]1(CCN2CC1CC1)[C@@H]3O5)c1ccccc1`, for which the Ki in experiment [1] was 537 nM; in experiment [2], 14.8 nM; at Mu-type opioid receptor, 363 nM.

Consider `Oc1ccc2c3c1O[C@@H]1c4[nH]c5c(Oc6ccccc6)cccc5c4C[C@@]4(O)[C@@H](C2)N(CC2CC2)CC[C@]314`, for which the Ki was 33.9 nM in experiment [1], 0.708 nM in experiment [2] and 33.9 nM at Mu-type opioid receptor.

Consider `Oc1ccc2c3c1O[C@@H]1c4[nH]c5ccc(Oc6ccccc6)cc5c4C[C@@]4(O)[C@@H](C2)N(CC2CC2)CC[C@]314`, for which the Ki in experiment [1] was 75.9 nM; in experiment [2] it was 17.8 nM; on Mu-type opioid receptor, 295 nM.

In experiment [2], `C=C(C)CN1CCC23c4c5ccc(OC)c4O[C@H]2c2oc4ccccc4c2C[C@@]3(O)C1C5` (stereo partly specified) had a Ki of 43.7 nM.

On to `C=C(C)CN1CCC23c4c5ccc(OC)c4O[C@H]2c2[nH]ncc2C[C@@]3(O)C1C5` (stereo partly specified), for which the Ki in experiment [1] is 3090 nM; in experiment [2], 2400 nM.

In experiment [1], `Oc1ccc2c3c1O[C@H]1c4[nH]c5ccccc5c4C[C@@]4(O)[C@@H](C2)N(CC2CC2)CC[C@]314` [NALTRINDOLE] showed a Ki of 26.9 nM.
